According to patent publication US9695155B2, “Herbicidal substituted pyrimidinyloxy benzene compounds” (E. I. DU PONT DE NEMOURS AND COMPANY, priority 2013, dated 2017):

Assays:
winter barley = assay: Test D postemergence; format: in vivo, Hordeum vulgare; details: Hordeum vulgare, post-emergence, Postemergence, scale 0 to 100 (0 no effect, 100 complete control), read-out: Plant response rating, Barley, Winter; for plant injury at 16 g/ha: 16 g ai/ha; for plant injury at 31 g/ha: 31 g ai/ha; for plant injury at 62 g/ha: 62 g ai/ha; for plant injury at 125 g/ha: 125 g ai/ha
Summary of the method: (§1)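 After treatment, visual injury versus untreated plants, 0–100 scale, assessed at 7 to 21 days. Applications were made preemergence to silt loam-sown seed and postemergence to seedlings 2–18 cm high in potting medium.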

spring barley = assay: Test D postemergence; format: in vivo, Hordeum vulgare; details: Hordeum vulgare, post-emergence, Postemergence, scale 0 to 100 (0 no effect, 100 complete control), read-out: Plant response rating, Barley, Spring; for plant injury at 16 g/ha: 16 g ai/ha; for plant injury at 31 g/ha: 31 g ai/ha; for plant injury at 62 g/ha: 62 g ai/ha; for plant injury at 125 g/ha: 125 g ai/ha
Summary of the method: as §1

speedwell = assay: Test D postemergence; format: in vivo, Veronica persica; details: Veronica persica, post-emergence; for pest or weed control at 16 g/ha: 16 g ai/ha, scale 0-100, read-out: Plant response rating, Speedwell; for pest or weed control at 31 g/ha: 31 g ai/ha; for pest or weed control at 62 g/ha: 62 g ai/ha; for pest or weed control at 125 g/ha: 125 g ai/ha
Summary of the method: as §1

wild radish = assay: Test D postemergence; format: in vivo, Raphanus raphanistrum; details: Raphanus raphanistrum, post-emergence; for pest or weed control at 16 g/ha: 16 g ai/ha, scale 0-100, read-out: Plant response rating, Radish, Wild; for pest or weed control at 31 g/ha: 31 g ai/ha; for pest or weed control at 62 g/ha: 62 g ai/ha; for pest or weed control at 125 g/ha: 125 g ai/ha
Summary of the method: as §1

wild buckwheat [1] = assay: Test D postemergence; format: in vivo, Polygonum convolvulus; details: Fallopia convolvulus, post-emergence, Postemergence, scale 0 to 100 (0 no effect, 100 complete control), read-out: Plant response rating, Buckwheat, Wild; for pest or weed control at 16 g/ha: 16 g ai/ha; for pest or weed control at 31 g/ha: 31 g ai/ha; for pest or weed control at 62 g/ha: 62 g ai/ha; for pest or weed control at 125 g/ha: 125 g ai/ha
Summary of the method: as §1

bluegrass = assay: Test D postemergence; format: in vivo, Poa annua; details: Poa annua, post-emergence, Postemergence, scale 0 to 100 (0 no effect, 100 complete control), read-out: Plant response rating, Bluegrass; for pest or weed control at 16 g/ha: 16 g ai/ha; for pest or weed control at 31 g/ha: 31 g ai/ha; for pest or weed control at 62 g/ha: 62 g ai/ha; for pest or weed control at 125 g/ha: 125 g ai/ha
Summary of the method: as §1

wild buckwheat [2] = assay: Test D preemergence; format: in vivo, Polygonum convolvulus; details: Fallopia convolvulus, pre-emergence; for pest or weed control at 16 g/ha: 16 g ai/ha, scale 0 (no effect) to 100 (complete control), read-out: Plant response rating, Buckwheat, Wild; for pest or weed control at 31 g/ha: 31 g ai/ha; for pest or weed control at 62 g/ha: 62 g ai/ha; for pest or weed control at 125 g/ha: 125 g ai/ha
Summary of the method: as §1

bromegrass, downy = assay: Test D postemergence; format: in vivo, Bromus tectorum; details: Bromus tectorum, post-emergence, Postemergence, scale 0 to 100 (0 no effect, 100 complete control), read-out: Plant response rating, Bromegrass, Downy; for pest or weed control at 16 g/ha: 16 g ai/ha; for pest or weed control at 31 g/ha: 31 g ai/ha; for pest or weed control at 62 g/ha: 62 g ai/ha; for pest or weed control at 125 g/ha: 125 g ai/ha
Summary of the method: as §1

canarygrass = assay: Test D postemergence; format: in vivo, Phalaris minor; details: Phalaris minor, post-emergence; for pest or weed control at 16 g/ha: 16 g ai/ha, scale 0-100, read-out: Plant response rating, Canarygrass; for pest or weed control at 31 g/ha: 31 g ai/ha; for pest or weed control at 62 g/ha: 62 g ai/ha; for pest or weed control at 125 g/ha: 125 g ai/ha
Summary of the method: as §1

[3] = scale 0 to 100 (0 no effect, 100 complete control), read-out: Plant response rating, Speedwell
[4] = scale 0 to 100 (0 no effect, 100 complete control), read-out: Plant response rating, Radish, Wild
[5] = scale 0-100, read-out: Plant response rating, Buckwheat, Wild
[6] = scale 0 to 100 (0 no effect, 100 complete control), read-out: Plant response rating, Canarygrass

Work on `FC(F)(F)c1cnn(-c2ccccc2Oc2ncc(Br)cn2)c1` [Compound 18, 5-bromo-2-[2-[4-(trifluoromethyl)-1H-pyrazol-1-yl]phenoxy]pyrimidine] yielded a plant injury at 16 g/ha (winter barley) of 10%, a plant injury at 31 g/ha (winter barley) of 10% and a plant injury at 62 g/ha (winter barley) of 10%. For the same molecule, the plant injury at 125 g/ha (winter barley) was 15%, the plant injury at 250 g/ha (winter barley; 250 g ai/ha) was 20% and the plant injury at 16 g/ha (spring barley) was 5%. The plant injury at 31 g/ha (spring barley) was 5%, the plant injury at 62 g/ha (spring barley) was 10% and the plant injury at 125 g/ha (spring barley) was 15%. The plant injury at 250 g/ha (spring barley; 250 g ai/ha) was 25%, the pest or weed control at 16 g/ha (speedwell) was 100% and the pest or weed control at 31 g/ha (speedwell; [3]) was 100%. The pest or weed control at 62 g/ha (speedwell; [3]) was 100%, the pest or weed control at 125 g/ha (speedwell; [3]) was 100% and the pest or weed control at 250 g/ha (speedwell; 250 g ai/ha, scale 0 to 100 (0 no effect, 100 complete control), read-out: Plant response rating, Speedwell) was 100%. For the same molecule, the pest or weed control at 16 g/ha (wild radish) was 95%, the pest or weed control at 31 g/ha (wild radish; [4]) was 90% and the pest or weed control at 62 g/ha (wild radish; [4]) was 100%. It also gave a pest or weed control at 125 g/ha (wild radish; [4]) of 100%, a pest or weed control at 250 g/ha (wild radish; 250 g ai/ha, scale 0 to 100 (0 no effect, 100 complete control), read-out: Plant response rating, Radish, Wild) of 100% and a pest or weed control at 16 g/ha (wild buckwheat [1]) of 60%. It also gave a pest or weed control at 31 g/ha (wild buckwheat [1]) of 55%, a pest or weed control at 62 g/ha (wild buckwheat [1]) of 70% and a pest or weed control at 125 g/ha (wild buckwheat [1]) of 100%. For the same molecule, the pest or weed control at 250 g/ha (wild buckwheat [1]; 250 g ai/ha) was 95%, the pest or weed control at 16 g/ha (bluegrass) was 15% and the pest or weed control at 31 g/ha (bluegrass) was 25%. For the same molecule, the pest or weed control at 62 g/ha (bluegrass) was 30%, the pest or weed control at 125 g/ha (bluegrass) was 40% and the pest or weed control at 250 g/ha (bluegrass; 250 g ai/ha) was 40%. It also gave a pest or weed control at 16 g/ha (wild buckwheat [2]) of 10%, a pest or weed control at 31 g/ha (wild buckwheat [2]; [5]) of 70% and a pest or weed control at 62 g/ha (wild buckwheat [2]; [5]) of 80%. It also gave a pest or weed control at 125 g/ha (wild buckwheat [2]; [5]) of 100%, a pest or weed control at 250 g/ha (wild buckwheat [2]; 250 g ai/ha, scale 0-100, read-out: Plant response rating, Buckwheat, Wild) of 100% and a pest or weed control at 16 g/ha (bromegrass, downy) of 15%. The pest or weed control at 31 g/ha (bromegrass, downy) was 15%, the pest or weed control at 62 g/ha (bromegrass, downy) was 15% and the pest or weed control at 125 g/ha (bromegrass, downy) was 20%. The pest or weed control at 250 g/ha (bromegrass, downy; 250 g ai/ha) was 15%, the pest or weed control at 16 g/ha (canarygrass) was 10% and the pest or weed control at 31 g/ha (canarygrass; [6]) was 15%. The pest or weed control at 62 g/ha (canarygrass; [6]) was 15%, the pest or weed control at 125 g/ha (canarygrass; [6]) was 20% and the pest or weed control at 250 g/ha (canarygrass; 250 g ai/ha, scale 0 to 100 (0 no effect, 100 complete control), read-out: Plant response rating, Canarygrass) was 35%.

For `FC(F)(F)c1cn(-c2ccccc2Oc2ncc(Cl)cn2)nn1` [Compound 166, 5-chloro-2-[2-[4-(trifluoromethyl)-1H-1,2,3-triazol-1-yl]phenoxy]pyrimidine], the plant injury at 16 g/ha (winter barley) was 5%, the plant injury at 31 g/ha (winter barley) was 15% and the plant injury at 62 g/ha (winter barley) was 25%. It also gave a plant injury at 125 g/ha (winter barley) of 35%, a plant injury at 16 g/ha (spring barley) of 10% and a plant injury at 31 g/ha (spring barley) of 20%. For the same molecule, the plant injury at 62 g/ha (spring barley) was 30%, the plant injury at 125 g/ha (spring barley) was 45% and the pest or weed control at 16 g/ha (speedwell) was 70%. The pest or weed control at 31 g/ha (speedwell; [3]) was 85%, the pest or weed control at 62 g/ha (speedwell; [3]) was 100% and the pest or weed control at 125 g/ha (speedwell; [3]) was 100%. For the same molecule, the pest or weed control at 16 g/ha (wild radish) was 70%, the pest or weed control at 31 g/ha (wild radish; [4]) was 70% and the pest or weed control at 62 g/ha (wild radish; [4]) was 95%. The pest or weed control at 125 g/ha (wild radish; [4]) was 95%, the pest or weed control at 16 g/ha (wild buckwheat [1]) was 70% and the pest or weed control at 31 g/ha (wild buckwheat [1]) was 95%. It also gave a pest or weed control at 62 g/ha (wild buckwheat [1]) of 95%, a pest or weed control at 125 g/ha (wild buckwheat [1]) of 100% and a pest or weed control at 16 g/ha (bluegrass) of 20%. It also gave a pest or weed control at 31 g/ha (bluegrass) of 40%, a pest or weed control at 62 g/ha (bluegrass) of 55% and a pest or weed control at 125 g/ha (bluegrass) of 65%. The pest or weed control at 16 g/ha (wild buckwheat [2]) was 60%, the pest or weed control at 31 g/ha (wild buckwheat [2]; [5]) was 95% and the pest or weed control at 62 g/ha (wild buckwheat [2]; [5]) was 100%. For the same molecule, the pest or weed control at 125 g/ha (wild buckwheat [2]; [5]) was 100%, the pest or weed control at 16 g/ha (bromegrass, downy) was 15% and the pest or weed control at 31 g/ha (bromegrass, downy) was 20%. It also gave a pest or weed control at 62 g/ha (bromegrass, downy) of 35%, a pest or weed control at 125 g/ha (bromegrass, downy) of 50% and a pest or weed control at 16 g/ha (canarygrass) of 20%. For the same molecule, the pest or weed control at 31 g/ha (canarygrass; [6]) was 35%, the pest or weed control at 62 g/ha (canarygrass; [6]) was 50% and the pest or weed control at 125 g/ha (canarygrass; [6]) was 55%.
